In patent publication US4868299A, “Antibacterially active pyrido-benzothiazine derivatives with long-term action” (Mediolanum Farmaceutici Srl, priority 1986, dated 1989):
Values after ≈ are worked out from the molar mass of the structure shown. Like-named read-outs stand apart in the source and are kept apart here.

Columns and labels:
Staphylococcus 7 = experiment: in-vitro antibacterial activity, MIC by agar dilution (multipoint inoculator); type: cell-based; conditions: Staphylococcus 7; 18 hours at 37° C; read-out: Minimum Inhibiting Concentration (MIC)
Experimental: (§1) The antibacterial activity of the compounds according to the invention was determined "in vitro" on pathogenic strains of recent clinical isolation by testing agar dilutions using a multipoint inoculator (Denley Techn. Ltd., England).
(§2) The culture medium used is isosensitest agar (Oxoid), in a quantity of 20 ml in a Petri capsule. The compounds to be tested were dissolved at various dilutions and incorporated in agar.
(§3) The bacterial inoculum, originating from an overnight broth and containing 10^5 colony-forming units per point, was inoculated by a multipoint inoculator. The bacterial growth was evaluated after 18 hours of incubation at 37° C.
(§4) For comparison purposes, the results relative to compound (XIII) and to nalidixic acid are also reported.

Citrobacter 120 = experiment: as above; type: cell-based; conditions: Citrobacter 120; 18 hours at 37° C; read-out: Minimum Inhibiting Concentration (MIC)
Experimental: as §1, §2, §3, §4

Pseudomonas 19 = experiment: as above; type: cell-based; conditions: Pseudomonas 19; 18 hours at 37° C; read-out: Minimum Inhibiting Concentration (MIC)
Experimental: as §1, §2, §3, §4

Pseudomonas 22437 = experiment: as above; type: cell-based; conditions: 18 hours at 37° C, read-out: Minimum Inhibiting Concentration (MIC)
Experimental: as §1, §2, §3, §4

Escherichia 963 = experiment: as above; type: cell-based; conditions: Escherichia 963; 18 hours at 37° C; read-out: Minimum Inhibiting Concentration (MIC)
Experimental: as §1, §2, §3, §4

Serratia 10 = experiment: as above; type: cell-based; conditions: 18 hours at 37° C, read-out: Minimum Inhibiting Concentration (MIC)
Experimental: as §1, §2, §3, §4

Proteus 25 = experiment: as above; type: cell-based; conditions: Proteus 25; 18 hours at 37° C; read-out: Minimum Inhibiting Concentration (MIC)
Experimental: as §1, §2, §3, §4

Enterobacter 2653 = experiment: as above; type: cell-based; conditions: Enterobacter 2653; 18 hours at 37° C; read-out: Minimum Inhibiting Concentration (MIC)
Experimental: as §1, §2, §3, §4

Serratia 9 = experiment: as above; type: cell-based; conditions: Serratia 9; 18 hours at 37° C; read-out: Minimum Inhibiting Concentration (MIC)
Experimental: as §1, §2, §3, §4

Escherichia 15 = experiment: as above; type: cell-based; conditions: 18 hours at 37° C, read-out: Minimum Inhibiting Concentration (MIC)
Experimental: as §1, §2, §3, §4

Proteus 966 = experiment: as above; type: cell-based; conditions: Proteus 966; 18 hours at 37° C; read-out: Minimum Inhibiting Concentration (MIC)
Experimental: as §1, §2, §3, §4

Enterobacter 041 = experiment: as above; type: cell-based; conditions: Enterobacter 041; 18 hours at 37° C; read-out: Minimum Inhibiting Concentration (MIC)
Experimental: as §1, §2, §3, §4

Staphylococcus 29 = experiment: as above; type: cell-based; conditions: Staphylococcus 29; 18 hours at 37° C; read-out: Minimum Inhibiting Concentration (MIC)
Experimental: as §1, §2, §3, §4

Klebsiella 4 = experiment: as above; type: cell-based; conditions: Klebsiella 4; 18 hours at 37° C; read-out: Minimum Inhibiting Concentration (MIC)
Experimental: as §1, §2, §3, §4

Citrobacter 118 = experiment: as above; type: cell-based; conditions: Citrobacter 118; 18 hours at 37° C; read-out: Minimum Inhibiting Concentration (MIC)
Experimental: as §1, §2, §3, §4

[1] = plasma and tissue concentrations after oral administration to the rat (HPLC); type: in vivo; conditions: for concentration at 0.5 h: 0.5 hours after treatment; for concentration at 4 h: 4 hours after treatment; for concentration at 15 h: 15 hours after treatment
Experimental: (§5) The compound (X) was administered orally at a dose of 50 mg/kg to the rat after which the plasma, tissue and urine concentrations were evaluated by the HPLC method, as described hereinafter.
The plasma and tissues (heart, kidney and liver) were withdrawn from groups of 3 female rats at various times after oral administration.
(§6) The HPLC determination was made by the following procedure: 2 mg of N-dimethyldiarepam (internal standard), 1 ml of citrate buffer (0.1 M, pH 6.2) and 6 ml of chloroform are added to 1 ml of plasma or to 1 ml of supernatant obtained after centrifuging a homogenized tissue in 3 volumes of physiological solution at 2000 r.p.m. for 5 minutes.
(§7) After agitating for 20 minutes and centrifuging at 3000 r.p.m. for 5 minutes, the organic phase is separated and dried over a water bath at 70° C.
(§8) The residue is collected in 50 μl of methanol, and 20 μl of the solution are injected into a HPLC (Gilson) column under the following conditions: column μ Bondopak C-18 ([…], wavelength 245 nm), flow: 0.7 ml/min, mobile phase: (A) 0.1% acetic acid and (B) methanol, gradient: […]

[2] = urine concentrations after oral administration to the rat (HPLC); type: in vivo; conditions: 50 mg/kg oral; for Cumulative excretion (urine) / Volume excreted (urine): pool of 6 rats
Experimental: as §5
The urine was collected at various times during the 24 hours following administration. The results relative to urine concentrations are summarised in Table 2, and refer to a urine pool obtained form 6 female rates having a weight of about 100 g.
as §6, §7, §8

[3] = rat, 50 mg/kg oral, heart, read-out: Heart concentration
[4] = rat, 50 mg/kg oral, kidney, read-out: Kidney concentration
[5] = rat, 50 mg/kg oral, liver, read-out: Liver concentration
[6] = rat, 50 mg/kg oral, plasma, read-out: Plasma concentration

Work on `CC1Cn2cc(C(=O)O)c(=O)c3cc(F)c(N4CCN(C)CC4)c(c32)S1` (centres unmarked) [(X), 9-fluoro-10[N(N'-methyl)piperazinyl]-2-methyl-7-oxo-2,3-dihydro-7H-pyrido[1,2,3-de][1,4]benzothiazine-6-carboxylic acid] yielded an MIC (Staphylococcus 7) of 2 µg/mL (≈ 5.3 µM), an MIC (Citrobacter 120) of 0.25 µg/mL (≈ 0.662 µM) and an MIC (Pseudomonas 19) of 16 µg/mL (≈ 42.4 µM). It also gave an MIC (Pseudomonas 22437) of 16 µg/mL (≈ 42.4 µM), an MIC (Escherichia 963) of 2 µg/mL (≈ 5.3 µM) and an MIC (Serratia 10) of 2 µg/mL (≈ 5.3 µM). For the same compound, the MIC (Proteus 25) was 8 µg/mL (≈ 21.2 µM), the MIC (Enterobacter 2653) was 0.5 µg/mL (≈ 1.32 µM) and the MIC (Serratia 9) was 8 µg/mL (≈ 21.2 µM). The MIC (Escherichia 15) was 0.25 µg/mL (≈ 0.662 µM), the MIC (Proteus 966) was 8 µg/mL (≈ 21.2 µM) and the MIC (Enterobacter 041) was 0.25 µg/mL (≈ 0.662 µM). For the same compound, the MIC (Staphylococcus 29) was 2 µg/mL (≈ 5.3 µM), the MIC (Klebsiella 4) was 0.25 µg/mL (≈ 0.662 µM) and the MIC (Citrobacter 118) was 0.5 µg/mL (≈ 1.32 µM). The “absorption after oral administration, in words” value ([1]; rat, 50 mg/kg oral) was “rapidly absorbed after oral administration to induce high tissue levels”, the “heart, kidney and liver concentrations relative to plasma, in words” value ([1]; rat, 50 mg/kg oral) was “always greater than those observed in the plasma” and the “tissue bioavailability, in words” value ([1]; rat, 50 mg/kg oral) was “excellent tissue bioavailability”. For the same compound, the “concentrations relative to the MIC values, in words” value ([1]; rat, 50 mg/kg oral, 15 hours after administration) was “high concentrations relative to the MIC values are still present”, the concentration at 0.5 h [1, 3] was 19200 ng/g and the concentration at 4 h [1, 3] was 18600 ng/g. It also gave a concentration at 15 h [1, 3] of 4630 ng/g, a concentration at 0.5 h [1, 4] of 34400 ng/g and a concentration at 4 h [1, 4] of 38700 ng/g. It also gave a concentration at 15 h [1, 4] of 5900 ng/g, a concentration at 0.5 h [1, 5] of 62900 ng/g and a concentration at 4 h [1, 5] of 34300 ng/g. For the same compound, the concentration at 15 h [1, 5] was 9370 ng/g, the concentration at 0.5 h [1, 6] was 10.2 µg/mL and the concentration at 4 h [1, 6] was 8.1 µg/mL. The concentration at 15 h [1, 6] was 3.5 µg/mL, the “urine concentrations, in words” value [2] was “lasting and high” and the “Cumulative excretion (urine)” value ([2]; 0-1 hours after treatment) was 0.50 mg. For the same compound, the “Volume excreted (urine)” value ([2]; 0-1 hours after treatment) was 5.5 mL, the “Cumulative excretion (urine)” value ([2]; 1-2 hours after treatment) was 1.33 mg and the “Volume excreted (urine)” value ([2]; 1-2 hours after treatment) was 3.2 mL. The “Cumulative excretion (urine)” value ([2]; 2-4 hours after treatment) was 2.05 mg, the “Volume excreted (urine)” value ([2]; 2-4 hours after treatment) was 7.2 mL and the “Cumulative excretion (urine)” value ([2]; 4-8 hours after treatment) was 3.13 mg. For the same compound, the “Volume excreted (urine)” value ([2]; 4-8 hours after treatment) was 6.0 mL, the “Cumulative excretion (urine)” value ([2]; 8-24 hours after treatment) was 8.17 mg and the “Volume excreted (urine)” value ([2]; 8-24 hours after treatment) was 28.0 mL. For the same compound, the concentration at 1 h ([2]; urine, 0-1 hours after treatment) was 90 µg/mL, the concentration at 2 h ([2]; urine, 1-2 hours after treatment) was 260 µg/mL and the concentration at 4 h ([2]; urine, 2-4 hours after treatment) was 100 µg/mL. The concentration at 8 h ([2]; urine, 4-8 hours after treatment) was 180 µg/mL, the concentration at 24 h ([2]; urine, 8-24 hours after treatment) was 180 µg/mL and the dose excreted at 24 h ([2]; urine, within 24 hours, of the orally administered dose, read-out: percentage urine excretion of the non-metabolized product) was ~27%.
In the case of `CC1Cn2cc(C(=O)O)c(=O)c3cc(F)c(N4CCNCC4)c(c32)S1` (centres unmarked) [(XI), 9-fluoro-10[N-piperazinyl]-2-methyl-7-oxo-2,3-dihydro-7H-pyrido[1,2,3-de][1,4]benzothiazine-6-carboxylic acid], the “results of the tests operating in accordance with the described procedures, in words” value ([1]; rat, in vivo) is reported as “analogous to the tests carried out with compound (X)”.
Work on `CC1Cn2cc(C(=O)O)c(=O)c3cc(F)c(N4CCCC4)c(c32)S1` (centres unmarked) [(XII), 9-fluoro-10[N-pyrrolidine]-2-methyl-7-oxo-2,3-dihydro-7H-pyrido[1,2,3-de][1,4]benzothiazine-6-carboxylic acid] yielded an MIC (Staphylococcus 7) of 0.25 µg/mL (≈ 0.718 µM), an MIC (Citrobacter 120) of 2 µg/mL (≈ 5.74 µM) and an MIC (Pseudomonas 19) of 2 µg/mL (≈ 5.74 µM). The MIC (Pseudomonas 22437) was 16 µg/mL (≈ 45.9 µM), the MIC (Escherichia 963) was 16 µg/mL (≈ 45.9 µM) and the MIC (Serratia 10) was 2 µg/mL (≈ 5.74 µM). It also gave an MIC (Proteus 25) of 2 µg/mL (≈ 5.74 µM), an MIC (Enterobacter 2653) of 16 µg/mL (≈ 45.9 µM) and an MIC (Serratia 9) of 16 µg/mL (≈ 45.9 µM). For the same compound, the MIC (Escherichia 15) was 2 µg/mL (≈ 5.74 µM), the MIC (Proteus 966) was 2 µg/mL (≈ 5.74 µM) and the MIC (Enterobacter 041) was 2 µg/mL (≈ 5.74 µM). The MIC (Staphylococcus 29) was 0.25 µg/mL (≈ 0.718 µM), the MIC (Klebsiella 4) was 2 µg/mL (≈ 5.74 µM) and the MIC (Citrobacter 118) was 16 µg/mL (≈ 45.9 µM). The “results of the tests operating in accordance with the described procedures, in words” value ([1]; compared with compound (X)) was “analogous to the tests carried out with compound (X)”.
